Where only a bound is given, the exact number is not on record here.

Holding throughout (format): cell-based
The test system of test [1] is NCI-H226 cells. Briefly: Viability assay in NCI-H226 (Yap-dependent) cells, CyQUANT. The following applies: Homo sapiens, NCI-H226 YAP dependent cell line, 96 hour incubation, group symbols. A digest of the protocol:
(§1)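 Cells were seeded 24 h before dosing, then given a 10-point, 1:3 compound series from 30 μM final (0.3% DMSO) in duplicate. After 96 h at 37 °C, viability was read by CyQUANT DNA-dye fluorescence.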

For test [2], the system named is SW620 Yap KO cells. The test is described as follows: Viability assay in SW620 Yap KO (Yap independent) cells, CyQUANT. The following applies: Homo sapiens, SW-620, SW620 YAP and TAZ knocked out (YAP independent), 96 hour incubation, n.d. (x) = not detectable below threshold x. A digest of the protocol: as §1
For test [3], the system named is YAP-TEAD interaction. Briefly: SK-HEP-1 reporter assay (8x TEAD responsive elements driving NanoLuc luciferase). The following applies: Homo sapiens, SK-HEP1, SK-HEP-1 cells, 24 hour incubation. A digest of the protocol:
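SK-HEP-1 cells carrying a stably integrated 8× TEAD-element NanoLuc reporter, seeded 24 h before dosing, were treated in duplicate with a 10-point dose series (top 30 μM final, 0.3% DMSO) for 24 h at 37°C, 5% CO2. Luciferase activity read by NanoGlo luminescence; IC50 derived from it.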

For `Cn1cc2c3cc(C(=O)N[C@@H](CO)c4ccccn4)sc3n(-c3ccc(OC(F)F)cn3)c2n1` [Compound 122, 7-[5-(difluoromethoxy)pyridin-2-yl]-N-[(1R)-2-hydroxy-1-(pyridin-2-yl)ethyl]-4-methyl-9-thia-4,5,7-triazatricyclo[6.3.0.0^2,6]undeca-1(8),2,5,10-tetraene-10-carboxamide], the values for the IC50 in test [1], in test [2] and in test [3] (group symbols) were 1 to 100 nM, more than 30000 nM and 100 to 10000 nM, respectively.
Regarding `C[C@H](CO)NC(=O)c1cc2c3cn(C)nc3n(-c3ccc(OC(F)F)cn3)c2s1` [Compound 123, 7-[5-(difluoromethoxy)pyridin-2-yl]-N-[(2R)-1-hydroxypropan-2-yl]-4-methyl-9-thia-4,5,7-triazatricyclo[6.3.0.0^2,6]undeca-1(8),2,5,10-tetraene-10-carboxamide], the IC50 in test [1] was 1 to 100 nM; in test [2] it was more than 30000 nM; in test [3] (number, or n.d. (x) = not detectable below threshold x) it was more than 300 nM.
For the compound `CNC(=O)c1cc2c3cn(C)nc3n(-c3ccc(OC(F)(F)F)cn3)c2s1` [Compound 124, N,4-dimethyl-7-[5-(trifluoromethoxy)pyridin-2-yl]-9-thia-4,5,7-triazatricyclo[6.3.0.0^2,6]undeca-1(8),2,5,10-tetraene-10-carboxamide], the IC50 is 1 to 100 nM in test [1], more than 3000 nM in test [2] and 100 to 10000 nM in test [3] (group symbols).
For the compound `Cn1cc2c3cc(C(=O)N[C@@H](CO)c4ccccn4)sc3n(-c3ccc(OC(F)(F)F)cn3)c2n1` [Compound 125, N-[(1R)-2-hydroxy-1-(pyridin-2-yl)ethyl]-4-methyl-7-[5-(trifluoromethoxy)pyridin-2-yl]-9-thia-4,5,7-triazatricyclo[6.3.0.0^2,6]undeca-1(8),2,5,10-tetraene-10-carboxamide], the results for the IC50 in test [1], in test [2] and in test [3] (group symbols) were 1 to 100 nM, more than 30000 nM and 100 to 10000 nM, respectively.
`C[C@H](CO)NC(=O)c1cc2c3cn(C)nc3n(-c3ccc(OC(F)(F)F)cn3)c2s1` [Compound 126, N-[(2R)-1-hydroxypropan-2-yl]-4-methyl-7-[5-(trifluoromethoxy)pyridin-2-yl]-9-thia-4,5,7-triazatricyclo[6.3.0.0^2,6]undeca-1(8),2,5,10-tetraene-10-carboxamide]: the figures for the IC50 in test [1], in test [2] and in test [3] (group symbols) were 1 to 100 nM, more than 30000 nM and 10 to 100 nM, respectively.

The record behind these values is US20260159525A1, “TRICYCLIC HETEROCYCLES” (Merck Patent GmbH, priority 2021, published 2026).
